Data: patent US6310095A, “Inhibitors of protein isoprenyl transferases” (University of Pittsburgh, priority 1998, dated 2001)
Where a name gives a salt, the structure may show the parent alone.

target: T1, protein farnesyltransferase (Rattus norvegicus, UniProt Q02293+Q04631); assay: in vitro inhibition of protein farnesyltransferase (scintillation proximity assay, biotin-K Ras B fragment); assay type: biochemical; settings: at 1 × 10^-5 M
T1 construct: Rat brain protein farnesyltransferase activity is measured; from tissue; host or cells: rat brain; purified according to Reiss et al., Cell 62:81-88 (1990), steps one through three
Summary of the method: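 Rat brain enzyme, purified through three steps, in a scintillation proximity assay kit with biotin-K Ras B fragment substrate at 0.1 mM final. Value is % inhibition of farnesylation.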

SMILES | inhibition at 10 µM [%]
Cc1ccccc1-c1cc(CN(Cc2ccccc2)c2cccnc2)ccc1C(=O)N[C@@H](CCS(C)(=O)=O)C(=O)O [Example 759, (2S)-2-N-[4-(N-benzyl-N-3-pyridylaminomethyl)-2-(2-methylphenyl)benzoyl]amino-4-methanesulfonylbutanoic acid] | 49

same assay, conditions: at 1 × 10^-6 M

SMILES | % inhibition of farnesyltransferase [%]
CSCC[C@H](NC(=O)c1ccc(S(=O)(=O)N(Cc2ccccc2)c2ccccc2)cc1-c1ccccc1C)C(=O)[O-].[Li+] [Example 768] | 67
CSCC[C@H](NC(=O)c1ccc(S(=O)(=O)NCCC2CCCCC2)cc1-c1ccccc1C)C(=O)O [Example 772] | 79
CSCC[C@H](NC(=O)c1ccc(S(=O)(=O)NC2CCN(Cc3ccccc3)CC2)cc1-c1ccccc1C)C(=O)O [Example 773] | 41
CSCC[C@H](NC(=O)c1ccc(S(=O)(=O)NCCN2CCCCC2)cc1-c1ccccc1C)C(=O)O [Example 774] | 48
CSCC[C@H](NC(=O)c1ccc(S(=O)(=O)NCCN2CCOCC2)cc1-c1ccccc1C)C(=O)O [Example 775] | 32
COc1ccc(CCNS(=O)(=O)c2ccc(C(=O)N[C@@H](CCSC)C(=O)O)c(-c3ccccc3C)c2)cc1OC [Example 776] | 36
CSCC[C@H](NC(=O)c1ccc(S(=O)(=O)NCCCn2ccnc2)cc1-c1ccccc1C)C(=O)O [Example 777] | 83
CSCC[C@H](NC(=O)c1ccc(-c2ccccc2-c2ccccc2)cc1-c1ccccc1C)C(=O)[O-].[Li+] [Example 786] | 34
CSCC[C@H](NC(=O)c1ccc(-c2cccc(-c3ccccc3)c2)cc1-c1ccccc1C)C(=O)[O-].[Li+] [Example 787] | 70
CSCC[C@H](NC(=O)c1ccc(-c2ccc(-c3ccccc3)cc2)cc1-c1ccccc1C)C(=O)[O-].[Li+] [Example 788] | 44
CSCC[C@H](NC(=O)c1ccc(C[C@H]2CC[C@@H](c3ccccc3)CC2)cc1-c1ccccc1C)C(=O)O [Example 790] | 88
CSCC[C@H](NC(=O)c1ccc(/C=C/c2ccccc2)cc1-c1ccccc1C)C(=O)O [Example 791] | 53
CSCC[C@H](NC(=O)c1ccc(CCc2cccc(-c3ccccc3)c2)cc1-c1ccccc1C)C(=O)[O-].[Li+] [Example 793] | 94
CSCC[C@H](NC(=O)c1ccc(COC2CCN(Cc3ccccc3)CC2)cc1-c1ccccc1C)C(=O)O [Example 807] | 90
CSCC[C@H](NC(=O)c1ccc(COC2CCN(C(=O)OC(C)(C)C)CC2)cc1-c1ccccc1C)C(=O)[O-].[Li+] [Example 808] | 88
CSCC[C@H](NC(=O)c1ccc(COC2(Cc3ccccc3)CCN(C(=O)OC(C)(C)C)CC2)cc1-c1ccccc1C)C(=O)[O-].[Li+] [Example 809] | 78
CSCC[C@H](NC(=O)c1ccc(/C=C/c2ccc(Oc3ccccc3)nn2)cc1-c1ccccc1C)C(=O)O [Example 810] | 89
CSCC[C@H](NC(=O)c1ccc(/C=C/c2cnc(Oc3ccccc3)cn2)cc1-c1ccccc1C)C(=O)O [Example 812] | 94
CSCC[C@H](NC(=O)c1ccc(CCc2cnc(Oc3ccccc3)cn2)cc1-c1ccccc1C)C(=O)O [Example 813] | 95
CSCC[C@H](NC(=O)c1ccc(COC2(c3ccccc3)CCN(C(=O)OC(C)(C)C)CC2)cc1-c1ccccc1C)C(=O)[O-].[Li+] [Example 816] | 87
CSCC[C@H](NC(=O)c1ccc(CN2CCC[C@H]2COCc2ccccc2)cc1-c1ccccc1C)C(=O)O [Example 824] | 90

same assay, conditions: at 1 × 10^-6 M; read-out: % inhibition of farnesyltransferase

SMILES | inhibition at 1 µM [%]
CCSC[C@H](CC1CCCCC1)NCc1ccc(C(=O)N[C@@H](CCSC)C(=O)OCOC(=O)C(C)(C)C)c(-c2ccccc2C)c1 [Example 764, hydrochloride salt] | 88
CCSC[C@H](CC1CCCCC1)NCc1ccc(C(=O)N(C)[C@@H](CCSC)C(=O)O)c(-c2ccccc2C)c1 [Example 765, lithium salt] | 76
CSCC[C@H](NC(=O)c1ccc(CN(Cc2ccc(C(F)(F)F)cc2)c2ccccc2)cc1-c1ccccc1C)C(=O)O [Example 782, N-[4-N-(N-phenyl-N-(4-trifluoromethylbenzyl)aminomethyl)-2-(2-methylphenyl)-benzoyl]methionine lithium salt] | 96

same assay, conditions: at 1 × 10^-7 M

SMILES | % inhibition of farnesyltransferase [%]
CSCC[C@H](NC(=O)c1ccc(C=Cc2cncs2)cc1-c1ccccc1C)C(=O)[O-].[Li+] [Example 785] | 96
CSCC[C@H](NC(=O)c1ccc(COc2ccc(Oc3ccccc3)cc2)cc1-c1ccccc1C)C(=O)[O-].[Li+] [Example 795] | 87
CSCC[C@H](NC(=O)c1ccc(CCc2ccc(Oc3ccccc3)nn2)cc1-c1ccccc1C)C(=O)O [Example 811] | 85
CSCC[C@H](NC(=O)c1ccc(COC2CCC(NC(=O)OC(C)(C)C)CC2)cc1-c1ccccc1C)C(=O)[O-].[Li+] (stereo partly drawn) [Example 817] | 60
CSCC[C@H](NC(=O)c1ccc(COCc2ccc(-c3ccc(Cl)cc3)o2)cc1-c1ccccc1C)C(=O)NS(C)(=O)=O [Example 818] | 78
CSCC[C@H](NC(=O)c1ccc(COCC2CCC(c3ccc(Cl)cc3)O2)cc1-c1ccccc1C)C(=O)O (stereo partly drawn) [Example 822] | 93
CCCCC(OCc1ccc(C(=O)N[C@@H](CCSC)C(=O)[O-])c(-c2ccccc2C)c1)c1ccco1.[Li+] (stereo partly drawn) [Example 825] | 79

same assay, conditions: at 1 × 10^-7 M; read-out: % inhibition of farnesyltransferase

SMILES | inhibition at 0.1 µM [%]
CSCC[C@H](NC(=O)c1ccc(CN(c2ccccc2)S(=O)(=O)c2ccccc2)cc1-c1ccccc1C)C(=O)O [Example 769, N-[4-N-(N-phenyl-N-benzenesulfonylaminomethyl)-2-(2-methylphenyl)benzoyl]methionine lithium salt] | 90
CSCC[C@H](NC(=O)c1ccc(CN(c2ccccc2)S(=O)(=O)c2ccc(C)cc2)cc1-c1ccccc1C)C(=O)O [Example 770, N-[4-N-(N-phenyl-N-toluenesulfonylaminomethyl)-2-(2-methylphenyl)benzoyl]methionine lithium salt] | 91
CSCC[C@H](NC(=O)c1ccc(CN(Cc2ccc(Cl)cc2)c2ccccc2)cc1-c1ccccc1C)C(=O)O [Example 781, N-[4-N-(N-phenyl-N-(4-chlorobenzyl)aminomethyl)-2-(2-methylphenyl)benzoyl]methionine lithium salt] | 91

same assay, conditions: at 1 × 10^-8 M

SMILES | % inhibition of farnesyltransferase [%]
CSCC[C@H](NC(=O)c1ccc(COCc2ccc(-c3ccc(Cl)cc3)o2)cc1-c1ccccc1C)C(=O)NS(=O)(=O)c1ccccc1 [Example 819] | 76
CSCC[C@H](NC(=O)c1ccc(COCc2ccc(-c3ccc(C(C)C)cc3)o2)cc1-c1ccccc1C)C(=O)[O-].[Li+] [Example 820] | 66
CSCC[C@H](NC(=O)c1ccc(COCc2ccc(-c3ccc(N(C)C)cc3)o2)cc1-c1ccccc1C)C(=O)O [Example 821] | 75
CCCCC(OCc1ccc(C(=O)N[C@@H](CCSC)C(=O)[O-])c(-c2ccccc2C)c1)c1ccc(-c2ccc(Cl)cc2)o1.[Li+] (stereo partly drawn) [Example 826] | 92
CSCC[C@H](NC(=O)c1ccc(COCc2occc2-c2ccc(Cl)cc2)cc1-c1ccccc1C)C(=O)[O-].[Li+] [Example 827] | 77
CSCC[C@H](NC(=O)c1ccc(COC(Cc2ccccc2)c2cncs2)cc1-c1ccccc1C)C(=O)[O-].[Li+] (stereo partly drawn) [Example 828] | 87

same assay, conditions: at 1 × 10^-8 M; read-out: % inhibition of farnesyltransferase

SMILES | inhibition at 0.01 µM [%]
CSCC[C@H](NC(=O)c1ccc(CN(CCC2CCCCC2)C(=O)c2ccccc2)cc1-c1ccccc1C)C(=O)O [Example 762, N-[4-N-Benzoyl-N-2-cyclohexylethylaminomethyl-2-(2-methylphenyl)benzoyl]methionine lithium salt] | 84
CSCC[C@H](NC(=O)c1ccc(CN(CCC2CCCCC2)C(=O)OC(C)(C)C)cc1-c1ccccc1C)C(=O)O [Example 763, N-[4-N-t-Butyloxycarbonyl-N-2-cyclohexylethylaminomethyl-2-(2-methylphenyl)benzoyl]methionine lithium salt] | 92
CSCC[C@H](NC(=O)c1ccc(CN[C@H](CSC2CCCCC2)CC2CCCCC2)cc1-c1ccccc1C)C(=O)O [Example 766, lithium salt] | 95
CSCC[C@H](NC(=O)c1ccc(CN[C@H](CSc2ccccc2C)CC2CCCCC2)cc1-c1ccccc1C)C(=O)O [Example 767, lithium salt] | 97
COc1cccc(CN(Cc2ccc(C(=O)N[C@@H](CCSC)C(=O)O)c(-c3ccccc3C)c2)c2ccccc2)c1 [Example 779, N-[4-N-(N-phenyl-N-(3-methoxybenzyl)aniinomethyl)-2-(2-methylphenyl)benzoyl]methionine lithium salt] | 70
CSCC[C@H](NC(=O)c1ccc(CN(c2ccccc2)S(=O)(=O)c2ccc(C(F)(F)F)cc2)cc1-c1ccccc1C)C(=O)O [Example 780, N-[4-N-(N-phenyl-N-(4-trifluoromethylbenzenesulfonyl)aminomethyl)-2-(2-methylphenal)-benzoyl]methionine lithium salt] | 71

same assay, conditions: read-out: % inhibition of farnesyltransferase

SMILES | inhibition at 1 µM [%]
CCOC(=O)N1CCC(NCc2ccc(C(=O)N[C@@H](CCSC)C(=O)O)c(-c3ccccc3C)c2)CC1 [Example 806, N-[4-(1-ethoxycarbonylpiperidin-4-ylaminomethyl)-2-(2-methylphenyl)benzoyl]methionine lithium salt] | 72
